Measurements as given in PubChem BioAssay (NCI).
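The compound was tested at five concentrations on cells cultured in 96-well plates, with a 48-hour exposure period. GI50 marks 50% less growth. TGI: concentration producing complete growth inhibition.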

Experiments:
Experiment in all cases: inhibition of tumour cell growth, NCI panel, 48 h
T-47D breast = tested on: T-47D breast
UACC-257 melanoma = tested on: UACC-257 melanoma
SF-295 CNS = tested on: SF-295 CNS
A549 NSCLC = tested on: A549 NSCLC
RPMI-8226 leukemia = tested on: RPMI-8226 leukemia
LOX IMVI melanoma = tested on: LOX IMVI melanoma
MDA-MB-231 breast = tested on: MDA-MB-231 breast
HOP-92 NSCLC = tested on: HOP-92 NSCLC
SNB-75 CNS = tested on: SNB-75 CNS
HT29 colon = tested on: HT29 colon
786-0 renal = tested on: 786-0 renal
BT-549 breast = tested on: BT-549 breast
NCI-H23 lung = tested on: NCI-H23 lung
K-562 leukemia = tested on: K-562 leukemia
SR leukemia = tested on: SR leukemia
SNB-19 CNS = tested on: SNB-19 CNS
MOLT-4 leukemia = tested on: MOLT-4 leukemia
A498 renal = tested on: A498 renal
MCF7 breast = tested on: MCF7 breast
HL-60(TB) leukemia = tested on: HL-60(TB) leukemia
OVCAR-5 ovarian = tested on: OVCAR-5 ovarian
SN12C renal = tested on: SN12C renal
HCT-15 colon = tested on: HCT-15 colon
SK-MEL-2 melanoma = tested on: SK-MEL-2 melanoma
ACHN renal = tested on: ACHN renal
NCI-H460 lung = tested on: NCI-H460 lung
SF-268 CNS = tested on: SF-268 CNS
RXF 393 renal = tested on: RXF 393 renal
HOP-62 NSCLC = tested on: HOP-62 NSCLC

SMILES: CN[C@H](C#Cc1c(F)ccc2c1/C(=C/c1[nH]ccc1OC)C(=O)N2)CO
- TGI (T-47D breast): 13600 nM
- GI50 (UACC-257 melanoma): 1520 nM
- TGI (UACC-257 melanoma): 4930 nM
- GI50 (SF-295 CNS): 946 nM
- TGI (SF-295 CNS): 25000 nM
- GI50 (A549 NSCLC): 354 nM
- TGI (A549 NSCLC): 2820 nM
- GI50 (RPMI-8226 leukemia): 689 nM
- TGI (RPMI-8226 leukemia): 1800 nM
- GI50 (LOX IMVI melanoma): 344 nM
- TGI (LOX IMVI melanoma): 2540 nM
- GI50 (MDA-MB-231 breast): 787 nM
- TGI (MDA-MB-231 breast): 3000 nM
- GI50 (HOP-92 NSCLC): 3170 nM
- TGI (HOP-92 NSCLC): 11800 nM
- GI50 (SNB-75 CNS): 77.7 nM
- TGI (SNB-75 CNS): 3880 nM
- GI50 (HT29 colon): 438 nM
- TGI (HT29 colon): 2390 nM
- GI50 (786-0 renal): 462 nM
- TGI (786-0 renal): 4180 nM
- GI50 (BT-549 breast): 1150 nM
- TGI (BT-549 breast): 4150 nM
- GI50 (NCI-H23 lung): 657 nM
- TGI (NCI-H23 lung): 3110 nM
- GI50 (K-562 leukemia): 989 nM
- TGI (K-562 leukemia): 5890 nM
- GI50 (SR leukemia): 109 nM
- TGI (SR leukemia): 1910 nM
- GI50 (SNB-19 CNS): 1060 nM
- TGI (SNB-19 CNS): 21000 nM
- GI50 (MOLT-4 leukemia): 386 nM
- TGI (MOLT-4 leukemia): 3800 nM
- GI50 (A498 renal): 452 nM
- TGI (A498 renal): 3350 nM
- GI50 (MCF7 breast): 569 nM
- TGI (MCF7 breast): 3680 nM
- GI50 (HL-60(TB) leukemia): 513 nM
- TGI (HL-60(TB) leukemia): 2010 nM
- GI50 (OVCAR-5 ovarian): 917 nM
- TGI (OVCAR-5 ovarian): 3710 nM
- GI50 (SN12C renal): 200 nM
- TGI (SN12C renal): 25000 nM
- GI50 (HCT-15 colon): 117 nM
- TGI (HCT-15 colon): 3020 nM
- GI50 (SK-MEL-2 melanoma): 199 nM
- TGI (SK-MEL-2 melanoma): 749 nM
- GI50 (ACHN renal): 115 nM
- TGI (ACHN renal): 2710 nM
- GI50 (NCI-H460 lung): 358 nM
- TGI (NCI-H460 lung): 2580 nM
- GI50 (SF-268 CNS): 509 nM
- TGI (SF-268 CNS): 2210 nM
- GI50 (RXF 393 renal): 85.5 nM
- TGI (RXF 393 renal): 704 nM
- GI50 (HOP-62 NSCLC): 628 nM
- TGI (HOP-62 NSCLC): 2420 nM
